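A five-concentration, 48-hour dose response in 96-well plates underlies each endpoint, interpolated linearly between surrounding concentrations. The concentration for 50% growth inhibition is given as GI50. TGI denotes the concentration required for complete inhibition of growth.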
What was measured:
Test in all cases: DTP human tumour cell line panel, 48 h; in the data active means GI50 below about 0.43 µM; inactive means the rest
SK-MEL-28 melanoma = tested on: SK-MEL-28 melanoma
IGROV1 ovarian = tested on: IGROV1 ovarian
HL-60(TB) leukemia = tested on: HL-60(TB) leukemia
ACHN renal = tested on: ACHN renal
MCF7 breast = tested on: MCF7 breast
SW-620 colon = tested on: SW-620 colon
786-0 renal = tested on: 786-0 renal
BT-549 breast = tested on: BT-549 breast
PC-3 prostate = tested on: PC-3 prostate
SF-539 CNS = tested on: SF-539 CNS
HCT-116 colon = tested on: HCT-116 colon
CAKI-1 renal = tested on: CAKI-1 renal
HCC-2998 colon = tested on: HCC-2998 colon
OVCAR-8 ovarian = tested on: OVCAR-8 ovarian
NCI-H460 lung = tested on: NCI-H460 lung
UACC-62 melanoma = tested on: UACC-62 melanoma
HCT-15 colon = tested on: HCT-15 colon
SK-MEL-5 melanoma = tested on: SK-MEL-5 melanoma
RPMI-8226 leukemia = tested on: RPMI-8226 leukemia
A549 NSCLC = tested on: A549 NSCLC
U251 CNS = tested on: U251 CNS
HT29 colon = tested on: HT29 colon
OVCAR-5 ovarian = tested on: OVCAR-5 ovarian
OVCAR-4 ovarian = tested on: OVCAR-4 ovarian
UO-31 renal = tested on: UO-31 renal
SN12C renal = tested on: SN12C renal
NCI-H226 lung = tested on: NCI-H226 lung
MDA-MB-231 breast = tested on: MDA-MB-231 breast
COLO 205 colon = tested on: COLO 205 colon
EKVX NSCLC = tested on: EKVX NSCLC
HS 578T breast = tested on: HS 578T breast
MOLT-4 leukemia = tested on: MOLT-4 leukemia
DU-145 prostate = tested on: DU-145 prostate
MDA-MB-435 = tested on: MDA-MB-435
SF-268 CNS = tested on: SF-268 CNS
M14 melanoma = tested on: M14 melanoma
HOP-92 NSCLC = tested on: HOP-92 NSCLC
HOP-62 NSCLC = tested on: HOP-62 NSCLC
SNB-75 CNS = tested on: SNB-75 CNS
CCRF-CEM leukemia = tested on: CCRF-CEM leukemia
SNB-19 CNS = tested on: SNB-19 CNS
NCI-H23 lung = tested on: NCI-H23 lung
OVCAR-3 ovarian = tested on: OVCAR-3 ovarian
MALME-3M melanoma = tested on: MALME-3M melanoma
SF-295 CNS = tested on: SF-295 CNS
A498 renal = tested on: A498 renal
LOX IMVI melanoma = tested on: LOX IMVI melanoma
SK-MEL-2 melanoma = tested on: SK-MEL-2 melanoma
SK-OV-3 ovarian = tested on: SK-OV-3 ovarian
TK-10 renal = tested on: TK-10 renal
K-562 leukemia = tested on: K-562 leukemia
SR leukemia = tested on: SR leukemia
UACC-257 melanoma = tested on: UACC-257 melanoma
T-47D breast = tested on: T-47D breast
KM12 colon = tested on: KM12 colon
NCI-H522 lung = tested on: NCI-H522 lung
NCI/ADR-RES ovarian = tested on: NCI/ADR-RES ovarian
RXF 393 renal = tested on: RXF 393 renal

NNC(=O)c1ccccc1Nc1nc(-c2cccs2)nc2ccc(Br)cc12
> 100 µM: TGI (SK-MEL-28 melanoma) | TGI (IGROV1 ovarian) | TGI (HL-60(TB) leukemia) | TGI (ACHN renal) | TGI (MCF7 breast) | TGI (SW-620 colon) | TGI (786-0 renal) | TGI (BT-549 breast) | TGI (PC-3 prostate) | TGI (SF-539 CNS) | TGI (HCT-116 colon) | TGI (CAKI-1 renal) | TGI (HCC-2998 colon) | TGI (OVCAR-8 ovarian) | TGI (NCI-H460 lung) | TGI (UACC-62 melanoma) | TGI (HCT-15 colon) | TGI (SK-MEL-5 melanoma) | TGI (RPMI-8226 leukemia) | TGI (A549 NSCLC) | TGI (U251 CNS) | TGI (HT29 colon) | TGI (OVCAR-5 ovarian) | TGI (OVCAR-4 ovarian) | TGI (UO-31 renal) | TGI (SN12C renal) | TGI (NCI-H226 lung) | TGI (MDA-MB-231 breast) | TGI (COLO 205 colon) | TGI (EKVX NSCLC) | TGI (HS 578T breast) | TGI (MOLT-4 leukemia) | TGI (DU-145 prostate) | TGI (MDA-MB-435) | TGI (SF-268 CNS) | TGI (M14 melanoma) | TGI (HOP-92 NSCLC) | TGI (HOP-62 NSCLC) | TGI (SNB-75 CNS) | TGI (CCRF-CEM leukemia) | TGI (SNB-19 CNS) | TGI (NCI-H23 lung) | TGI (OVCAR-3 ovarian) | TGI (MALME-3M melanoma) | TGI (SF-295 CNS) | TGI (A498 renal) | TGI (LOX IMVI melanoma) | TGI (SK-MEL-2 melanoma) | TGI (SK-OV-3 ovarian) | TGI (TK-10 renal) | TGI (K-562 leukemia) | TGI (SR leukemia) | TGI (UACC-257 melanoma) | TGI (T-47D breast) | TGI (KM12 colon) | TGI (NCI-H522 lung) | TGI (NCI/ADR-RES ovarian)

Cn1ccc2c1SSSSS2
inactive: GI50 (SK-MEL-28 melanoma) 21.1 µM | GI50 (IGROV1 ovarian) 35.9 µM | GI50 (ACHN renal) 28.4 µM | GI50 (MCF7 breast) 17.4 µM | GI50 (SW-620 colon) 29.1 µM | GI50 (786-0 renal) 26.4 µM | GI50 (BT-549 breast) 61.4 µM | GI50 (PC-3 prostate) 25.3 µM | GI50 (SF-539 CNS) 25.6 µM | GI50 (RXF 393 renal) 28.9 µM | GI50 (HCT-116 colon) 17.4 µM | GI50 (CAKI-1 renal) 22.4 µM | GI50 (HCC-2998 colon) 17.1 µM | GI50 (OVCAR-8 ovarian) 96.7 µM | GI50 (NCI-H460 lung) 47.6 µM | GI50 (UACC-62 melanoma) 17.3 µM | GI50 (HCT-15 colon) 33.8 µM | GI50 (SK-MEL-5 melanoma) 16.5 µM | GI50 (RPMI-8226 leukemia) 20.9 µM | GI50 (A549 NSCLC) 52.2 µM | GI50 (U251 CNS) 40 µM | GI50 (HT29 colon) 24.1 µM | GI50 (OVCAR-5 ovarian) 23 µM | GI50 (OVCAR-4 ovarian) 21.8 µM | GI50 (UO-31 renal) 36 µM | GI50 (SN12C renal) 21 µM | GI50 (NCI-H226 lung) 21.5 µM | GI50 (MDA-MB-231 breast) 17.9 µM | GI50 (COLO 205 colon) 15.1 µM | GI50 (EKVX NSCLC) 44.5 µM | GI50 (HS 578T breast) 28.8 µM | GI50 (MOLT-4 leukemia) 28.5 µM | GI50 (DU-145 prostate) 31.7 µM | GI50 (MDA-MB-435) 23.7 µM | GI50 (SF-268 CNS) 30.8 µM | GI50 (M14 melanoma) 18 µM | GI50 (HOP-92 NSCLC) 2.88 µM | GI50 (HOP-62 NSCLC) > 100 µM | GI50 (SNB-19 CNS) 36 µM | GI50 (NCI-H23 lung) 18.9 µM | GI50 (OVCAR-3 ovarian) 16.5 µM | GI50 (MALME-3M melanoma) 11.2 µM | GI50 (SF-295 CNS) 41.3 µM | GI50 (A498 renal) > 100 µM | GI50 (LOX IMVI melanoma) 24.8 µM | GI50 (SK-MEL-2 melanoma) 49.6 µM | GI50 (SK-OV-3 ovarian) 37.5 µM | GI50 (TK-10 renal) 27.1 µM | GI50 (K-562 leukemia) 23.2 µM | GI50 (SR leukemia) 4.6 µM | GI50 (UACC-257 melanoma) 52.3 µM | GI50 (T-47D breast) 11.8 µM | GI50 (KM12 colon) 17 µM | GI50 (NCI-H522 lung) 32.1 µM | GI50 (NCI/ADR-RES ovarian) 22.8 µM
36.1 µM: TGI (OVCAR-3 ovarian)
35.8 µM: TGI (KM12 colon)
35.9 µM: TGI (SK-MEL-5 melanoma)
58.7 µM: TGI (786-0 renal)
41.6 µM: TGI (COLO 205 colon) | TGI (MALME-3M melanoma)
59.6 µM: TGI (HT29 colon)
71.2 µM: TGI (HS 578T breast)
47.1 µM: TGI (OVCAR-5 ovarian)
52.9 µM: TGI (RPMI-8226 leukemia)
34.6 µM: TGI (UACC-62 melanoma)
33.8 µM: TGI (SR leukemia)
45.8 µM: TGI (MDA-MB-231 breast)
54.7 µM: TGI (NCI/ADR-RES ovarian)
68.9 µM: TGI (TK-10 renal)
51 µM: TGI (NCI-H226 lung)
84.7 µM: TGI (SW-620 colon)
35.6 µM: TGI (M14 melanoma)
33 µM: TGI (HCC-2998 colon)
42 µM: TGI (SN12C renal)
45.7 µM: TGI (CAKI-1 renal)
53.8 µM: TGI (MDA-MB-435)
69.8 µM: TGI (SF-539 CNS)
66.4 µM: TGI (PC-3 prostate)
47.6 µM: TGI (T-47D breast)
56 µM: TGI (OVCAR-4 ovarian)
31.1 µM: TGI (HCT-116 colon)
36.4 µM: TGI (NCI-H23 lung)
73.3 µM: TGI (ACHN renal)
71 µM: TGI (LOX IMVI melanoma)
47.5 µM: TGI (SK-MEL-28 melanoma)
7.66 µM: TGI (HOP-92 NSCLC)
43.2 µM: TGI (MCF7 breast)
> 100 µM: TGI (IGROV1 ovarian) | TGI (BT-549 breast) | TGI (RXF 393 renal) | TGI (OVCAR-8 ovarian) | TGI (NCI-H460 lung) | TGI (HCT-15 colon) | TGI (A549 NSCLC) | TGI (U251 CNS) | TGI (UO-31 renal) | TGI (EKVX NSCLC) | TGI (MOLT-4 leukemia) | TGI (DU-145 prostate) | TGI (SF-268 CNS) | TGI (HOP-62 NSCLC) | TGI (SNB-19 CNS) | TGI (SF-295 CNS) | TGI (A498 renal) | TGI (SK-MEL-2 melanoma) | TGI (SK-OV-3 ovarian) | TGI (K-562 leukemia) | TGI (UACC-257 melanoma) | TGI (NCI-H522 lung)
